Experimental findings from ChEMBL document CHEMBL3638448, “8-[3-amino-piperidin-1-yl]-xanthines, their preparation and their use as pharmaceutical compositions” (2014) are described below.

In the experiment the target is Dipeptidyl peptidase 4 (Homo sapiens, UniProt P27487). Kind of experiment: Biological Assay: 50 μl of substrate solution (AFC; AFC is amido-4-trifluoromethylcoumarin), final concentration 100 μM, was placed in black microtitre plates. 20 μl of assay buffer (final concentrations 50 mM Tris HCl pH 7.8, 50 mM NaCl, 1% DMSO) was pipetted therein. The reaction was started by the addition of 30 μl of solubilized Caco-2 protein (final concentration 0.14 μg of protein per well). The test substances under investigation were typically added prediluted to 20 μl, while the volume of assay buffer was then reduced accordingly. The reaction was carried out at ambient temperature, the incubation period was 60 minutes. Then the fluorescence was measured in a Victor 1420 Multilabel Counter, with the excitation wavelength at 405 nm and the emission wavelength at 535 nm.
Sequence of Dipeptidyl peptidase 4 (P27487 whole entry): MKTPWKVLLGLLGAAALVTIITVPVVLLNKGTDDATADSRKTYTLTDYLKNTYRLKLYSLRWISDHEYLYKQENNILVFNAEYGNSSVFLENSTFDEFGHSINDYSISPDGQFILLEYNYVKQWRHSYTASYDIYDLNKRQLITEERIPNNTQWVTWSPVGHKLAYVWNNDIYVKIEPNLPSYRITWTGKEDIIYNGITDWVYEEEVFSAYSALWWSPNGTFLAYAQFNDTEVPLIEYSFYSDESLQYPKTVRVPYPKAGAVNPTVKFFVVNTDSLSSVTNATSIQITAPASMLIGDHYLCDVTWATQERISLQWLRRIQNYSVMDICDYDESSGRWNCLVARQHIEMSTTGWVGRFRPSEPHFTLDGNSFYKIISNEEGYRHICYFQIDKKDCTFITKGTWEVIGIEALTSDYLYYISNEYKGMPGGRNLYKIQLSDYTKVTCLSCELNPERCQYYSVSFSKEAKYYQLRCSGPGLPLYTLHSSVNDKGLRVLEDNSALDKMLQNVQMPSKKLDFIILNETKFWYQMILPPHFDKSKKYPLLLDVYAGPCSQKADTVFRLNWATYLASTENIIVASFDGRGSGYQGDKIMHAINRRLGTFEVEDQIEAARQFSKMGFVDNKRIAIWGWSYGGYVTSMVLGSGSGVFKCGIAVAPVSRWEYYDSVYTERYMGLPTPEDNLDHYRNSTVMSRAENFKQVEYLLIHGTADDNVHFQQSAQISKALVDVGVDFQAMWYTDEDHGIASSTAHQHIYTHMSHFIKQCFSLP

One may read the IC50 as the concentration that inhibits the measured activity by half. High values mean lower potency, low ones higher potency.

With `CC#CCn1c(N2CCCC(NC(=O)OC(C)(C)C)C2)nc2c1c(=O)n(Cc1nc(NCc3ccccc3)c3ccccc3n1)c(=O)n2C` (stereo not given), 6 nM corresponded to half-maximal inhibition (IC50).
For the compound `CC#CCn1c(N2CCC[C@@H](NC(=O)OC(C)(C)C)C2)nc2c1c(=O)n(Cc1cc(C#N)cc3ccccc13)c(=O)n2C`, inhibition was half-maximal at 6 nM (IC50).
Then `CC#CCn1c(N2CCC[C@@H](NC(=O)OC(C)(C)C)C2)nc2c1c(=O)n(Cc1nc(-c3ccccc3)nc3ccccc13)c(=O)n2C`, with 9 nM; and `CC#CCn1c(N2CCC[C@@H](NC(=O)OC(C)(C)C)C2)nc2c1c(=O)n(Cc1cc(C#N)c3ccccc3n1)c(=O)n2C`, with 2 nM.
With `CC#CCn1c(N2CCC[C@@H](NC(=O)OC(C)(C)C)C2)nc2c1c(=O)n(CC(=O)c1cccc(OC3CC3)c1)c(=O)n2C`, the IC50 was determined as 5 nM.
In the case of `CC#CCn1c(N2CCC[C@@H](NC(=O)OC(C)(C)C)C2)nc2c1c(=O)n(Cc1ccc3nc(C)c(C)nc3c1)c(=O)n2C`, half-maximal inhibition (IC50) was put at 2 nM.
Regarding `CC#CCn1c(N2CCC[C@@H](NC(=O)OC(C)(C)C)C2)nc2c1c(=O)n(CC(=O)c1ccccc1Br)c(=O)n2C`, the IC50 amounted to 2 nM.
For `CC#CCn1c(N2CCC[C@@H](NC(=O)OC(C)(C)C)C2)nc2c1c(=O)n(Cc1nc3ccccc3c(C)c1C#N)c(=O)n2C`, the IC50 turned out to be 2 nM.
Compound `CC#CCn1c(N2CCC[C@@H](NC(=O)OC(C)(C)C)C2)nc2c1c(=O)n(Cc1nccc(-c3ccccc3)n1)c(=O)n2C` displayed an IC50 of 2 nM.
In the case of `CC#CCn1c(N2CCC[C@@H](NC(=O)OC(C)(C)C)C2)nc2c1c(=O)n(CC(=O)c1ccccc1[N+](=O)[O-])c(=O)n2C`, it took 3 nM to reach half-maximal inhibition (IC50).
